Molecular target: T1, human factor XIIIa (FXIIIa) (Homo sapiens, UniProt P00488)
T1 construct: gene F13A1
T1 sequence (P00488 39-732): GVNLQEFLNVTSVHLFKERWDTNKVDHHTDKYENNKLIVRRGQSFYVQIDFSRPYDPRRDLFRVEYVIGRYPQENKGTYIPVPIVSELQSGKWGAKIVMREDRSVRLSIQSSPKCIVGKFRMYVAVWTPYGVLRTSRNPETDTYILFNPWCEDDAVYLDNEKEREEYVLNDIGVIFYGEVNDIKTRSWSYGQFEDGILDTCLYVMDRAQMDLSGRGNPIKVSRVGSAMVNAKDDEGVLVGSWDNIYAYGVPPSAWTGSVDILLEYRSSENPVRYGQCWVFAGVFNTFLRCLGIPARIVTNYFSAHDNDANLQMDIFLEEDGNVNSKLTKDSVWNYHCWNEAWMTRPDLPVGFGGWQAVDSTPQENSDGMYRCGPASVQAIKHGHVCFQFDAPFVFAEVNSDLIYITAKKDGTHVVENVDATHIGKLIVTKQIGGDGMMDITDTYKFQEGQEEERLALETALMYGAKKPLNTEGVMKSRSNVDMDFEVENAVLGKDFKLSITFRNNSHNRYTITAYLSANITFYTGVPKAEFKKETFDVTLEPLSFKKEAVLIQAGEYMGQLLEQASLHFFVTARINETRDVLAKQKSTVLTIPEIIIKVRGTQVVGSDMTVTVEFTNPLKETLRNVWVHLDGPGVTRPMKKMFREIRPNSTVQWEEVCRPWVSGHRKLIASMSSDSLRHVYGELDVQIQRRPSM
Test: bisubstrate fluorescence trans-glutamination assay (dansylcadaverine / N,N-dimethylcasein)
Assay type: biochemical

An IC50 of 106 ± 32.5 µM was found for `C=C(CC)C(=O)c1ccc(OCC(=O)O)c(Cl)c1Cl` [compound 1, Ethacrynic acid] in this work.

— article PMC9158266, “Ethacrynic acid is an inhibitor of human factor XIIIa” (BMC Pharmacology & Toxicology, 2022)
